Laboratory results as given in the supplement of paper PMC10307832.

How the values were obtained:
Assay in all cases: relative viability (nuclei count vs DMSO), 5 days (fraction); higher = more cells survive
Zosuquidar + Pemetrexed = compound: O[C@@H](COc1cccc2ncccc12)CN1CCN([C@@H]2c3ccccc3[C@@H]3[C@H](c4ccccc42)C3(F)F)CC1 [Zosuquidar] + Nc1nc2[nH]cc(CCc3ccc(C(=O)N[C@@H](CCC(=O)O)C(=O)O)cc3)c2c(=O)[nH]1 [Pemetrexed] (partner 0.2 µM)
How it was run: (§1)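 Relative viability was taken as the ratio of nuclei in treated wells to nuclei in vehicle wells. Lung cancer cell lines in 1536-well plates received compounds by pin tool one day after seeding, either one drug alone or a fixed anchor-drug dose plus five library-drug doses (not always all listed) in √10 steps. Nuclei were counted on 4× images after 5 days of treatment, and values are medians of duplicate plates.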

[1] = compound: COc1cc2nccc(Oc3ccc(NC(=O)C4(C(=O)Nc5ccc(F)cc5)CC4)cc3)c2cc1OC [Cabozantinib] + Cc1cc(Nc2cc(N3CCN(C)CC3)nc(Sc3ccc(NC(=O)C4CC4)cc3)n2)n[nH]1 [Tozasertib] (partner 0.1 µM)
How it was run: as §1

Zosuquidar + Navitoclax = compound: O[C@@H](COc1cccc2ncccc12)CN1CCN([C@@H]2c3ccccc3[C@@H]3[C@H](c4ccccc42)C3(F)F)CC1 [Zosuquidar] + CC1(C)CCC(c2ccc(Cl)cc2)=C(CN2CCN(c3ccc(C(=O)NS(=O)(=O)c4ccc(N[C@H](CCN5CCOCC5)CSc5ccccc5)c(S(=O)(=O)C(F)(F)F)c4)cc3)CC2)C1 [Navitoclax] (partner 0.5 µM)
How it was run: as §1

[2] = compound: COc1cc2nccc(Oc3ccc(NC(=O)C4(C(=O)Nc5ccc(F)cc5)CC4)cc3)c2cc1OC [Cabozantinib] + CC(C)C[C@H](NC(=O)[C@H](Cc1ccccc1)NC(=O)c1cnccn1)B(O)O [Bortezomib] (partner 0.002 µM)
How it was run: as §1

Cell Line | relative viability (Zosuquidar + Pemetrexed; first compound 0.01 µM) | relative viability (Zosuquidar + Pemetrexed; first compound 0.03162 µM) | relative viability (Zosuquidar + Pemetrexed; first compound 0.1 µM) | relative viability (Zosuquidar + Pemetrexed; first compound 0.3162 µM) | relative viability (Zosuquidar + Pemetrexed; first compound 1 µM) | relative viability ([1]; first compound 0.02 µM) | relative viability ([1]; first compound 0.06325 µM) | relative viability ([1]; first compound 0.2 µM) | relative viability ([1]; first compound 0.6325 µM) | relative viability ([1]; first compound 2 µM) | relative viability (Zosuquidar + Navitoclax; first compound 0.01 µM) | relative viability (Zosuquidar + Navitoclax; first compound 0.03162 µM) | relative viability (Zosuquidar + Navitoclax; first compound 0.1 µM) | relative viability (Zosuquidar + Navitoclax; first compound 0.3162 µM) | relative viability (Zosuquidar + Navitoclax; first compound 1 µM) | relative viability ([2]; first compound 0.02 µM) | relative viability ([2]; first compound 0.06325 µM) | relative viability ([2]; first compound 0.2 µM) | relative viability ([2]; first compound 0.6325 µM) | relative viability ([2]; first compound 2 µM)
HCC-366 | 0.177 | 0.155 | 0.147 | 0.145 | 0.184 | 0.705 | 0.108 | 0.101 | 0.065 | 0.0583 | 0.97 | 1.18 | 1.02 | 1.01 | 1.09 | 1.06 | 1.13 | 1.1 | 0.953 | 1
NCI-H3122 | 0.19 | 0.188 | 0.192 | 0.19 | 0.204 | 0.412 | 0.431 | 0.385 | 0.42 | 0.458 | 1.04 | 0.98 | 1.05 | 1.02 | 1.01 | 1 | 1.01 | 0.978 | 0.924 | 0.964
COR-L 105 | 1.27 | 1.01 | 1.18 | 1.1 | 1.16 | 0.397 | 0.457 | – | 0.361 | 0.342 | 0.944 | 0.638 | 0.725 | 0.968 | 0.631 | 0.799 | 0.999 | – | 0.702 | 0.837
201T | 0.315 | 0.334 | 0.35 | 0.322 | 0.334 | 0.968 | 1.1 | 0.916 | 0.935 | 0.87 | 1.1 | 1.16 | 1.14 | 1.2 | 1.21 | 1.14 | 1.15 | 1.05 | 1.08 | 1.12
NCI-H2228 | 0.359 | 0.302 | 0.315 | 0.324 | 0.361 | 0.342 | 0.306 | 0.296 | 0.29 | 0.196 | 1.12 | 0.679 | 0.922 | 1.12 | 0.775 | 1.04 | 1.47 | 1.33 | 1.11 | 0.926
LC-2-ad | 0.255 | 0.276 | 0.296 | 0.31 | 0.282 | – | 0.454 | 0.46 | 0.456 | 0.392 | 0.452 | 0.607 | 0.407 | 0.534 | 0.406 | 1.06 | 1.17 | 0.863 | 0.865 | 0.821
NCI-H2087 | 0.597 | 0.667 | 0.62 | 0.643 | 0.637 | 0.271 | 0.24 | 0.225 | 0.248 | 0.204 | 0.968 | 0.994 | 0.965 | 1.18 | 1.08 | 0.863 | 1.04 | 0.702 | 0.661 | 0.815
H3255 | 0.574 | 0.569 | 0.506 | 0.574 | 0.535 | 0.605 | 1.34 | – | 0.471 | 0.775 | 0.513 | 0.492 | 0.537 | 0.608 | 0.436 | 0.75 | 0.958 | – | 0.831 | 0.901
NCI-H2347 | 0.425 | 0.34 | 0.413 | 0.432 | 0.483 | 0.572 | 0.526 | 0.575 | – | 0.392 | 0.891 | 0.686 | 0.583 | 0.931 | 0.944 | 0.875 | 1.34 | 0.944 | 0.963 | 0.666
CAL-12T | 1.08 | 1.15 | 0.983 | 1.23 | 1.1 | 0.366 | 0.446 | 0.369 | 0.261 | 0.247 | 1.38 | 1.35 | 1.17 | 1.45 | 1.2 | 0.876 | 1.25 | 0.882 | – | 1.06
A-427 | 1.01 | 0.996 | 0.806 | 1.02 | 0.796 | 0.316 | 0.201 | 0.209 | 0.213 | 0.185 | 1.01 | 0.714 | 0.873 | 1.02 | 0.974 | 1.03 | 0.969 | 1.05 | 0.936 | 0.988
HARA | 0.259 | 0.234 | 0.247 | 0.31 | 0.277 | 0.132 | 0.113 | 0.116 | 0.129 | 0.107 | 1.1 | 1.15 | 1.1 | 1.1 | 1.14 | 1.18 | 1.19 | 0.975 | 1.18 | 1.11
NCI-H2023 | 0.224 | 0.233 | 0.212 | 0.302 | 0.297 | 0.401 | 0.437 | 0.301 | 0.232 | 0.15 | 0.958 | 1 | 0.916 | 1.05 | 0.92 | 0.893 | 0.957 | 0.819 | 0.889 | 1.03
NCI-H520 | 0.742 | 0.723 | 0.788 | 0.85 | 0.899 | 0.52 | 0.442 | 0.432 | 0.392 | 0.386 | 1.16 | 1.15 | 0.986 | 1.03 | 1.02 | 0.878 | 0.73 | 0.703 | 0.483 | 0.515
NCI-H1915 | 0.518 | 0.527 | 0.413 | 0.489 | 0.474 | 0.46 | 0.447 | 0.471 | 0.435 | 0.416 | 0.756 | 0.79 | 0.796 | 0.802 | 0.743 | 1.01 | 1.02 | 0.971 | 1.01 | 0.979
HCC-827 | 0.237 | 0.272 | 0.255 | 0.263 | 0.279 | 0.456 | 0.481 | – | 0.436 | 0.414 | 1.04 | 0.991 | 0.991 | 1.02 | 1.03 | 0.981 | 1.1 | – | 1.11 | 1.06
